Assay results from ChEMBL document CHEMBL5724696, “Autophagy assay results for EUbOPEN Chemogenomics Library” (2024).
Several values for one entry are separate records, joined by “and”; a condition that tells them apart may be missing. Equal entries are not always repeated.

Legend:
Type in all cases: functional, Homo sapiens
[1] = tested on: TERT-RPE1; assay: (§1) Here: values are normalized to the negative (DMSO; defined as 0% autophagy induction) and positive (250nM Torin1; mTOR inhibitor; defined as maximal inducer of autophagy = 100%) control compounds and represented as % of autophagy induction. […] The impact of autophagy induction on cells is complex and depends on the affected target. As such, the magnitude of a phenotype may not be equally mirrored in the %-value of autophagy induction and vice versa. The dynamics of the induction may indicate the mode of activation: e.g. activation via phosphorylation or a signaling cascade may occur fast, while activation via transcription factors may take considerably longer. […] Of note, treatment concentrations may be sub-optimal for specific compounds, leading to false negative annotations.; settings: Culturing Media DMEM/F12 (1:1), 1 % Penicillin/Streptomycin, 10% Fetal bovin serum Add-On: No, Screening Media Control DMEM/F12 (1:1), Screening Media Samples DMEM/F12 (1:1)
[2] = tested on: U2OS; assay: as §1; settings: Culturing Media DMEM, 1 % Penicillin/Streptomycin, 10% Fetal bovin serum Add-On: No, Screening Media Control DMEM, Screening Media Samples DMEM
[3] = tested on: U2OS; assay: as §1; settings: Culturing Media DMEM, 1 % Penicillin/Streptomycin, 10% Fetal bovin serum Add-On: No, Screening Media Control DMEM, Screening Media Samples DMEM; remark: listed apart in the source
[4] = Compound Concentration 0.5 uM, Timepoint 12 hours
[5] = Compound Concentration 0.5 uM, Timepoint 24 hours
[6] = Compound Concentration 0.5 uM, Timepoint 36 hours
[7] = Compound Concentration 0.5 uM, Timepoint 60 hours
[8] = Compound Concentration 2 uM, Timepoint 12 hours
[9] = Compound Concentration 2 uM, Timepoint 24 hours
[10] = Compound Concentration 2 uM, Timepoint 36 hours
[11] = Compound Concentration 2 uM, Timepoint 60 hours
[12] = Compound Concentration 10 uM, Timepoint 12 hours
[13] = Compound Concentration 10 uM, Timepoint 24 hours
[14] = Compound Concentration 10 uM, Timepoint 36 hours
[15] = Compound Concentration 10 uM, Timepoint 60 hours

Which results are given for CCC[C@H](Oc1cc(C)c(-n2cc(C(F)(F)F)cn2)c(C)c1)c1ccc(C(=O)NCCC(=O)O)cc1 [PF-06291874]?
autophagy induction ([1]; Compound Concentration 0.5 uM, Timepoint 36 hours, 36 h, 0.5 µM): -0.178% and 20.1142%; autophagy induction [2, 4]: -5.893%; autophagy induction [2, 5]: -2.993%; autophagy induction [2, 6]: -60.6887%; autophagy induction [2, 7]: -2.982%; autophagy induction [2, 8]: -4.845%; autophagy induction [2, 9]: -1.051%; autophagy induction [2, 10]: -59.3505%; autophagy induction [2, 11]: -1.615%; autophagy induction [2, 12]: -7.606%; autophagy induction [2, 13]: -1.597%; autophagy induction [2, 14]: -60.4241%; autophagy induction [2, 15]: -2.455%; autophagy induction [3, 4]: -11.4233%; autophagy induction [3, 5]: -19.405%; autophagy induction [3, 6]: -11.4713%; autophagy induction [3, 7]: -20.1699%; autophagy induction [3, 8]: -1.65%; autophagy induction [3, 9]: -7.926%; autophagy induction [3, 10]: -7.132%; autophagy induction [3, 11]: -11.198%; autophagy induction [3, 12]: 3.31%; autophagy induction [3, 13]: 3.258%; autophagy induction [3, 14]: -0.5015%; autophagy induction [3, 15]: -15.9451%

Which autophagy induction [1, 4] does the source give for CN(C)S(=O)(=O)c1ccc(NC(=S)N2CCC(C(O)(c3ccccc3)c3ccccc3)CC2)cc1 here?
Its autophagy induction is -8.089%.

What about the autophagy induction [1, 5] of the same molecule?
The autophagy induction was -8.809%.

What about the autophagy induction [1, 6] of the same molecule?
The autophagy induction was -7.846%.

And the autophagy induction [1, 7]?
The autophagy induction was -8.279%.

And the autophagy induction [1, 8]?
The autophagy induction was -6.98%.

What about the autophagy induction [1, 9] of the same molecule?
The autophagy induction was -8.186%.

What about the autophagy induction [1, 10] of the same molecule?
The autophagy induction was -8.002%.

What about the autophagy induction [1, 11] of the same molecule?
The autophagy induction was -9.897%.

And the autophagy induction [1, 12]?
Its autophagy induction is -4.6942%.

And the autophagy induction [1, 13]?
Its autophagy induction is -5.029%.

And the autophagy induction [1, 14]?
Its autophagy induction is -1.466%.

What about the autophagy induction [1, 15] of the same molecule?
Its autophagy induction is -2.059%.

What about the autophagy induction [2, 4] of the same molecule?
Its autophagy induction is -3.164%.

And the autophagy induction [2, 5]?
Its autophagy induction is 1.478%.

And the autophagy induction [2, 6]?
Its autophagy induction is 0.3125%.

What about the autophagy induction [2, 7] of the same molecule?
Its autophagy induction is 1.161%.

What about the autophagy induction [2, 8] of the same molecule?
Its autophagy induction is -4.133%.

And the autophagy induction [2, 9]?
Its autophagy induction is -2.924%.

What about the autophagy induction [2, 10] of the same molecule?
Its autophagy induction is -1.588%.

And the autophagy induction [2, 11]?
Its autophagy induction is -1.351%.

What about the autophagy induction [2, 12] of the same molecule?
Its autophagy induction is -4.693%.

And the autophagy induction [2, 13]?
The autophagy induction was -0.2636%.

And the autophagy induction [2, 14]?
Its autophagy induction is 0.0362%.

And the autophagy induction [2, 15]?
The autophagy induction was -2.232%.

And the autophagy induction [3, 4]?
Its autophagy induction is 4.873%.

What about the autophagy induction [3, 5] of the same molecule?
Its autophagy induction is 8.285%.

And the autophagy induction [3, 6]?
Its autophagy induction is -1.545%.

What about the autophagy induction [3, 7] of the same molecule?
Its autophagy induction is -6.741%.

What about the autophagy induction [3, 8] of the same molecule?
Its autophagy induction is -9.723%.

And the autophagy induction [3, 9]?
The autophagy induction was -10.0932%.

What about the autophagy induction [3, 10] of the same molecule?
The autophagy induction was -2.641%.

And the autophagy induction [3, 11]?
The autophagy induction was -5.443%.

What about the autophagy induction [3, 12] of the same molecule?
The autophagy induction was -2.358%.

And the autophagy induction [3, 13]?
Its autophagy induction is -3.276%.

And the autophagy induction [3, 14]?
Its autophagy induction is -0.5558%.

And the autophagy induction [3, 15]?
The autophagy induction was -1.95%.

C[C@]1(C(=O)N(CCCC(=O)O)Cc2cccc(Cl)c2)CCN1C(=O)c1csc2ccccc12 [GLPG-0974] was tested. Which autophagy induction [1, 4] did it give?
The autophagy induction was -9.58%.

What about the autophagy induction [1, 5] of the same molecule?
Its autophagy induction is -12.1708%.

What about the autophagy induction [1, 6] of the same molecule?
Its autophagy induction is -12.5657%.

What about the autophagy induction [1, 7] of the same molecule?
Its autophagy induction is -12.3909%.

And the autophagy induction [1, 8]?
Its autophagy induction is -4.812%.

And the autophagy induction [1, 9]?
Its autophagy induction is -8.05%.

What about the autophagy induction [1, 10] of the same molecule?
Its autophagy induction is -10.5216%.

And the autophagy induction [1, 11]?
Its autophagy induction is -11.4009%.

And the autophagy induction [1, 12]?
Its autophagy induction is -6.234%.

What about the autophagy induction [1, 13] of the same molecule?
Its autophagy induction is -7.969%.

What about the autophagy induction [1, 14] of the same molecule?
The autophagy induction was -9.743%.

And the autophagy induction [1, 15]?
The autophagy induction was -14.0611%.

What about the autophagy induction [2, 4] of the same molecule?
Its autophagy induction is 2.89%.

And the autophagy induction [2, 5]?
The autophagy induction was 1.055%.

What about the autophagy induction [2, 6] of the same molecule?
The autophagy induction was -0.2915%.

And the autophagy induction [2, 7]?
Its autophagy induction is 0.8021%.

What about the autophagy induction [2, 8] of the same molecule?
Its autophagy induction is 5.8948%.

And the autophagy induction [2, 9]?
The autophagy induction was 0.1613%.

What about the autophagy induction [2, 10] of the same molecule?
Its autophagy induction is -0.9761%.

What about the autophagy induction [2, 11] of the same molecule?
Its autophagy induction is -1.363%.

And the autophagy induction [2, 12]?
The autophagy induction was 4.366%.

And the autophagy induction [2, 13]?
Its autophagy induction is 0.7536%.

And the autophagy induction [2, 14]?
The autophagy induction was -0.03596%.

What about the autophagy induction [2, 15] of the same molecule?
Its autophagy induction is 0.5874%.

And the autophagy induction [3, 4]?
The autophagy induction was -10.0746%.

What about the autophagy induction [3, 5] of the same molecule?
The autophagy induction was -10.8247%.

And the autophagy induction [3, 6]?
The autophagy induction was -4.098%.

And the autophagy induction [3, 7]?
The autophagy induction was -4.538%.

What about the autophagy induction [3, 8] of the same molecule?
The autophagy induction was 5.378%.

And the autophagy induction [3, 9]?
The autophagy induction was 3.105%.

What about the autophagy induction [3, 10] of the same molecule?
The autophagy induction was 6.198%.

And the autophagy induction [3, 11]?
Its autophagy induction is 1.696%.

And the autophagy induction [3, 12]?
The autophagy induction was 3.852%.

What about the autophagy induction [3, 13] of the same molecule?
Its autophagy induction is 1.348%.

And the autophagy induction [3, 14]?
Its autophagy induction is 0.8582%.

And the autophagy induction [3, 15]?
The autophagy induction was -7.082%.

For C/C(=N\NC(=O)[C@@H]1C(=O)NC[C@H]1c1ccccc1)c1cccc(Br)c1, which autophagy induction [1, 4] is on record?
Its autophagy induction is 3.657%.

And the autophagy induction [1, 5]?
Its autophagy induction is -1.179%.

And the autophagy induction [1, 6]?
The autophagy induction was -5.656%.

And the autophagy induction [1, 7]?
Its autophagy induction is -7.294%.

What about the autophagy induction [1, 8] of the same molecule?
Its autophagy induction is -6.467%.

What about the autophagy induction [1, 9] of the same molecule?
The autophagy induction was -9.581%.

What about the autophagy induction [1, 10] of the same molecule?
The autophagy induction was -11.1295%.

What about the autophagy induction [1, 11] of the same molecule?
Its autophagy induction is -14.064%.

And the autophagy induction [1, 12]?
The autophagy induction was -5.576%.

And the autophagy induction [1, 13]?
Its autophagy induction is -6.043%.

And the autophagy induction [1, 14]?
The autophagy induction was -7.363%.

What about the autophagy induction [1, 15] of the same molecule?
The autophagy induction was -9.435%.

What about the autophagy induction [2, 4] of the same molecule?
Its autophagy induction is -3.442%.

What about the autophagy induction [2, 5] of the same molecule?
Its autophagy induction is 0.5164%.

And the autophagy induction [2, 6]?
The autophagy induction was 1.385%.

What about the autophagy induction [2, 7] of the same molecule?
Its autophagy induction is -0.9425%.

And the autophagy induction [2, 8]?
The autophagy induction was -6.368%.

And the autophagy induction [2, 9]?
The autophagy induction was -5.034%.

And the autophagy induction [2, 10]?
Its autophagy induction is -3.37%.

What about the autophagy induction [2, 11] of the same molecule?
Its autophagy induction is -2.754%.

What about the autophagy induction [2, 12] of the same molecule?
Its autophagy induction is -1.379%.

And the autophagy induction [2, 13]?
Its autophagy induction is -1.755%.

And the autophagy induction [2, 14]?
The autophagy induction was -0.957%.

What about the autophagy induction [2, 15] of the same molecule?
Its autophagy induction is -1.418%.

What about the autophagy induction [3, 4] of the same molecule?
The autophagy induction was 9.666%.

What about the autophagy induction [3, 5] of the same molecule?
The autophagy induction was 0.07709%.

What about the autophagy induction [3, 6] of the same molecule?
Its autophagy induction is 4.021%.

What about the autophagy induction [3, 7] of the same molecule?
Its autophagy induction is -3.426%.

And the autophagy induction [3, 8]?
Its autophagy induction is -4.579%.

And the autophagy induction [3, 9]?
Its autophagy induction is -6.454%.

And the autophagy induction [3, 10]?
Its autophagy induction is -2.749%.

And the autophagy induction [3, 11]?
The autophagy induction was -11.0743%.

What about the autophagy induction [3, 12] of the same molecule?
The autophagy induction was -8.587%.

And the autophagy induction [3, 13]?
Its autophagy induction is 1.184%.

What about the autophagy induction [3, 14] of the same molecule?
The autophagy induction was -3.458%.

What about the autophagy induction [3, 15] of the same molecule?
Its autophagy induction is -5.559%.
